In patent US12486253B2, “Therapeutics for the degradation of mutant BRAF” (C4 THERAPEUTICS, INC., priority 2021, dated 2025):
Like-named read-outs stand apart in the source and are kept apart here.

Target: BRAF V600E (Homo sapiens, UniProt P15056, V600E)
Experiment: HiBiT cellular BRAF^V600E degradation assay
Assay type: cell-based
Conditions: for DC50: concentration at which 50% of total cellular BRAF^V600E is degraded; for Emax: read-out: HiBit 24 h Emax
[1] = A375.10 cells, 24 h, residual protein remaining in the cell

BRAF V600E, sequence (P15056 whole entry V600E): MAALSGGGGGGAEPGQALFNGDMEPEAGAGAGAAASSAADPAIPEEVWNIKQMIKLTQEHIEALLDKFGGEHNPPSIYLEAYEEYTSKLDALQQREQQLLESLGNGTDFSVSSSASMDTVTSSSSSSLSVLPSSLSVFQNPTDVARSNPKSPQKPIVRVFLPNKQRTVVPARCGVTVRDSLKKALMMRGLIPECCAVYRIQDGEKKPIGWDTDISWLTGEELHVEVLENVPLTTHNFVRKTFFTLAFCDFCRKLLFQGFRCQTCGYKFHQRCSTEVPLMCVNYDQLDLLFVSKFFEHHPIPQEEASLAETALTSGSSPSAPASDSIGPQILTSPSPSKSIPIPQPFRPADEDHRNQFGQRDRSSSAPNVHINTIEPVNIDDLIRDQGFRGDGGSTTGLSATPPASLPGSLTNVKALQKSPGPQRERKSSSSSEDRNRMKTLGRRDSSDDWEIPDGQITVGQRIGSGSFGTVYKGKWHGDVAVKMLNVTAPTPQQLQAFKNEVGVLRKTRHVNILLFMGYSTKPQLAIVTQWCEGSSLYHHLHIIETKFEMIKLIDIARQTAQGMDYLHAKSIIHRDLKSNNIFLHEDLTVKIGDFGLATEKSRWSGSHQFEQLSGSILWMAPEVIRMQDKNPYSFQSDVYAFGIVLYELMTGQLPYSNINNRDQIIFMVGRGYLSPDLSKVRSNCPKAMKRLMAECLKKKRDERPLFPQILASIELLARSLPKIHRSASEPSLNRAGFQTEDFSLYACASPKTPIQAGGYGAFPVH

Row | Compound | DC50 (A375.10 cells, 24 h) [nM] | Emax [1] [%] | Emax [%]
1 | CCN(C)S(=O)(=O)Nc1ccc(F)c(Oc2ccc3ncn(-c4cnc(N5CCN(C(=O)CN6CCC(c7ccc(NC8CCC(=O)NC8=O)cc7F)CC6)CC5)nc4)c(=O)c3c2F)c1C#N (stereo not drawn) [Example 86, 6-[2-cyano-3-[[ethyl(methyl)sulfamoyl]amino]-6-fluorophenoxy]-3-[2-[4-[2-[4-[4-[(2,6-dioxopiperidin-3-yl)amino]-2-fluorophenyl]piperidin-1-yl]acetyl]piperazin-1-yl]pyrimidin-5-yl]-5-fluoro-4-oxoquinazoline] | 8.28 | 12.9 | 
2 | CCN(C)S(=O)(=O)Nc1ccc(F)c(Oc2ccc3ncn(-c4ccc(N5CCN(C(=O)CN6CCC(c7c(F)cc(NC8CCC(=O)NC8=O)cc7OC)CC6)CC5)nc4)c(=O)c3c2)c1C#N (stereo not drawn) [Example 87, 6-[2-cyano-3-[[ethyl(methyl)sulfamoyl]amino]-6-fluorophenoxy]-3-[6-[4-[2-[4-[4-[(2,6-dioxopiperidin-3-yl)amino]-2-fluoro-6-methoxyphenyl]piperidin-1-yl]acetyl]piperazin-1-yl]pyridin-3-yl]-4-oxoquinazoline] | 30.3 | 10.1 | 
3 | CCN(C)S(=O)(=O)Nc1ccc(F)c(Oc2ccc3ncn(-c4cnc(N5CCN(C(=O)CN6CCC(c7cc(OC)c(NC8CCC(=O)NC8=O)cc7F)CC6)CC5)nc4)c(=O)c3c2)c1C#N (stereo not drawn) [Example 88, 6-[2-cyano-3-[[ethyl(methyl)sulfamoyl]amino]-6-fluorophenoxy]-3-[2-[4-[2-[4-[4-[(2,6-dioxopiperidin-3-yl)amino]-2-fluoro-5-methoxyphenyl]piperidin-1-yl]acetyl]piperazin-1-yl]pyrimidin-5-yl]-4-oxoquinazoline] | 15.1 |  | 9.01
4 | CCN(C)S(=O)(=O)Nc1ccc(F)c(Oc2ccc3ncn(-c4cnc(N5CCN(C(=O)CN6CCC(c7c(F)cc(NC8CCC(=O)NC8=O)cc7OC)CC6)CC5)nc4)c(=O)c3c2)c1C#N (stereo not drawn) [Example 89, 6-[2-cyano-3-[[ethyl(methyl)sulfamoyl]amino]-6-fluorophenoxy]-3-[2-[4-[2-[4-[4-[(2,6-dioxopiperidin-3-yl)amino]-2-fluoro-6-methoxyphenyl]piperidin-1-yl]acetyl]piperazin-1-yl]pyrimidin-5-yl]-4-oxoquinazoline] | 33 | 11.5 | 
5 | CCN(C)S(=O)(=O)Nc1ccc(F)c(Oc2ccc3ncn(-c4ccc(N5CCN(C(=O)CN6CCC(c7cc(OC)c(NC8CCC(=O)NC8=O)cc7F)CC6)CC5)nc4)c(=O)c3c2)c1C#N (stereo not drawn) [Example 90, 6-[2-cyano-3-[[ethyl(methyl)sulfamoyl]amino]-6-fluorophenoxy]-3-[6-[4-[2-[4-[4-[(2,6-dioxopiperidin-3-yl)amino]-2-fluoro-5-methoxyphenyl]piperidin-1-yl]acetyl]piperazin-1-yl]pyridin-3-yl]-4-oxoquinazoline] | 23.5 |  | 10.7
6 | CCN(C)S(=O)(=O)Nc1ccc(F)c(Oc2ccc3ncn(-c4cnc(N5CCN(C(=O)CN6CCC(c7ccc(N[C@H]8CCC(=O)NC8=O)cc7F)CC6)CC5)nc4)c(=O)c3c2)c1C#N [Example 92, 6-[2-cyano-3-[[ethyl(methyl)sulfamoyl]amino]-6-fluorophenoxy]-3-[2-[4-[2-[4-[4-[[(3S)-2,6-dioxopiperidin-3-yl]amino]-2-fluorophenyl]piperidin-1-yl]acetyl]piperazin-1-yl]pyrimidin-5-yl]-4-oxoquinazoline] | 8.71 |  | 7.37
7 | CCN(C)S(=O)(=O)Nc1ccc(F)c(Oc2ccc3ncn(-c4ccc(N5CCN(C(=O)CN6CCC(c7ccc(N[C@@H]8CCC(=O)NC8=O)cc7F)CC6)CC5)nc4)c(=O)c3c2)c1C#N [Example 93, 6-[2-cyano-3-[[ethyl(methyl)sulfamoyl]amino]-6-fluorophenoxy]-3-[6-[4-[2-[4-[4-[[(3R)-2,6-dioxopiperidin-3-yl]amino]-2-fluorophenyl]piperidin-1-yl]acetyl]piperazin-1-yl]pyridin-3-yl]-4-oxoquinazoline] | 28 | 14.1 | 
8 | CCN(C)S(=O)(=O)Nc1ccc(F)c(Oc2ccc3ncn(-c4ccc(N5CCN(C(=O)CN6CCC(c7ccc(N[C@H]8CCC(=O)NC8=O)cc7F)CC6)CC5)nc4)c(=O)c3c2)c1C#N [Example 94, 6-[2-cyano-3-[[ethyl(methyl)sulfamoyl]amino]-6-fluorophenoxy]-3-[6-[4-[2-[4-[4-[[(3S)-2,6-dioxopiperidin-3-yl]amino]-2-fluorophenyl]piperidin-1-yl]acetyl]piperazin-1-yl]pyridin-3-yl]-4-oxoquinazoline] | 21.5 | 10.5 | 
9 | CCN(C)S(=O)(=O)Nc1ccc(F)c(Oc2ccc3ncn(-c4cnc(N5CCN(C(=O)CN6CCC(c7ccc(N[C@@H]8CCC(=O)NC8=O)cc7F)CC6)CC5)nc4)c(=O)c3c2)c1C#N [Example 95, 6-[2-cyano-3-[[ethyl(methyl)sulfamoyl]amino]-6-fluorophenoxy]-3-[2-[4-[2-[4-[4-[[(3R)-2,6-dioxopiperidin-3-yl]amino]-2-fluorophenyl]piperidin-1-yl]acetyl]piperazin-1-yl]pyrimidin-5-yl]-4-oxoquinazoline] | 10.7 |  | 10.4
10 | CO[C@@H]1CCN(S(=O)(=O)Nc2ccc(F)c(Oc3ccc4ncn(-c5cnc(N6CCN(C(=O)CN7CCC(c8ccc(N[C@H]9CCC(=O)NC9=O)cc8F)CC7)CC6)nc5)c(=O)c4c3)c2C#N)C1 [Example 96, (3R)—N-[2-cyano-3-[3-[2-[4-[2-[4-[4-[[(3S)-2,6-dioxopiperidin-3-yl]amino]-2-fluorophenyl]piperidin-1-yl]acetyl]piperazin-1-yl]pyrimidin-5-yl]-4-oxoquinazolin-6-yl]oxy-4-fluorophenyl]-3-methoxypyrrolidine-1-sulfonamide] | 9.91 |  | 8.43
11 | CO[C@@H]1CCN(S(=O)(=O)Nc2ccc(F)c(Oc3ccc4ncn(-c5cnc(N6CCN(C(=O)CN7CCC(c8ccc(N[C@@H]9CCC(=O)NC9=O)cc8F)CC7)CC6)nc5)c(=O)c4c3)c2C#N)C1 [Example 97, (3R)—N-[2-cyano-3-[3-[2-[4-[2-[4-[4-[[(3R)-2,6-dioxopiperidin-3-yl]amino]-2-fluorophenyl]piperidin-1-yl]acetyl]piperazin-1-yl]pyrimidin-5-yl]-4-oxoquinazolin-6-yl]oxy-4-fluorophenyl]-3-methoxypyrrolidine-1-sulfonamide] | 8.41 | 10.6 | 
12 | CCN(C)S(=O)(=O)Nc1ccc(F)c(Oc2ccc3ncn(-c4cnc(N5CCN(C(=O)[C@H](CO)N6CCC(c7ccc(N[C@H]8CCC(=O)NC8=O)cc7F)CC6)CC5)nc4)c(=O)c3c2)c1C#N [Example 98, 6-[2-cyano-3-[[ethyl(methyl)sulfamoyl]amino]-6-fluorophenoxy]-3-[2-[4-[(2S)-2-[4-[4-[[(3S)-2,6-dioxopiperidin-3-yl]amino]-2-fluorophenyl]piperidin-1-yl]-3-hydroxypropanoyl]piperazin-1-yl]pyrimidin-5-yl]-4-oxoquinazoline] |  |  | 10.1
13 | CCN(C)S(=O)(=O)Nc1ccc(F)c(Oc2ccc3ncn(-c4cnc(N5CCN(C(=O)CN6CCC(c7ccc(N[C@@H]8CCC(=O)NC8=O)cc7F)CC6)CC5)nc4)c(=O)c3c2OC)c1C#N [Example 99, 6-[2-cyano-3-[[ethyl(methyl)sulfamoyl]amino]-6-fluorophenoxy]-3-[2-[4-[2-[4-[4-[[(3R)-2,6-dioxopiperidin-3-yl]amino]-2-fluorophenyl]piperidin-1-yl]acetyl]piperazin-1-yl]pyrimidin-5-yl]-5-methoxy-4-oxoquinazoline] | 34.2 | 11.4 | 
14 | CCN(C)S(=O)(=O)Nc1ccc(F)c(Oc2ccc3ncn(-c4cnc(N5CCN(C(=O)CN6CCC(c7ccc(N[C@H]8CCC(=O)NC8=O)cc7F)CC6)CC5)nc4)c(=O)c3c2OC)c1C#N [Example 100, 6-[2-cyano-3-[[ethyl(methyl)sulfamoyl]amino]-6-fluorophenoxy]-3-[2-[4-[2-[4-[4-[[(3S)-2,6-dioxopiperidin-3-yl]amino]-2-fluorophenyl]piperidin-1-yl]acetyl]piperazin-1-yl]pyrimidin-5-yl]-5-methoxy-4-oxoquinazoline] | 16.4 | 8.4 | 
15 | CCN(C)S(=O)(=O)Nc1ccc(F)c(Oc2ccc3ncn(-c4cnc(N5CCN(C(=O)CN6CCC(c7ccc(N[C@@H]8CCC(=O)NC8=O)cc7F)CC6)CC5)nc4)c(=O)c3c2N)c1C#N [Example 101, 5-amino-6-[2-cyano-3-[[ethyl(methyl)sulfamoyl]amino]-6-fluorophenoxy]-3-[2-[4-[2-[4-[4-[[(3R)-2,6-dioxopiperidin-3-yl]amino]-2-fluorophenyl]piperidin-1-yl]acetyl]piperazin-1-yl]pyrimidin-5-yl]-4-oxoquinazoline] | 27.7 | 11.6 | 
16 | N#Cc1c(NS(=O)(=O)C2CCCCC2)ccc(F)c1Oc1ccc2ncn(-c3cnc(N4CCN(C(=O)CN5CCC(c6ccc(N[C@H]7CCC(=O)NC7=O)cc6F)CC5)CC4)nc3)c(=O)c2c1 [Example 105, N-[2-cyano-3-[3-[2-[4-[2-[4-[4-[[(3S)-2,6-dioxopiperidin-3-yl]amino]-2-fluorophenyl]piperidin-1-yl]acetyl]piperazin-1-yl]pyrimidin-5-yl]-4-oxoquinazolin-6-yl]oxy-4-fluorophenyl]cyclohexanesulfonamide] | 17.7 |  | 11.8
17 | N#Cc1c(NS(=O)(=O)N2CCCCC2)ccc(F)c1Oc1ccc2ncn(-c3cnc(N4CCN(C(=O)CN5CCC(c6ccc(N[C@@H]7CCC(=O)NC7=O)cc6F)CC5)CC4)nc3)c(=O)c2c1 [Example 106, N-[2-cyano-3-[3-[2-[4-[2-[4-[4-[[(3R)-2,6-dioxopiperidin-3-yl]amino]-2-fluorophenyl]piperidin-1-yl]acetyl]piperazin-1-yl]pyrimidin-5-yl]-4-oxoquinazolin-6-yl]oxy-4-fluorophenyl]piperidine-1-sulfonamide] | 43.6 |  | 16.7
